Measurements: US20240342239A1, “TREATMENT OF NON-CYSTIC FIBROSIS BRONCHIECTASIS” (Zambon S.P.A., priority 2021, published 2024)
“Also recorded” adds a separate entry of the source.

Columns and labels:
[1] = system: subjects with NCFB chronically infected with P. aeruginosa; experiment: PROMIS 1 Phase III clinical study: NCFB pulmonary exacerbations, inhaled CMS via I-neb vs placebo; type: in vivo, human; settings: for hazard ratio, time to first NCFB pulmonary exacerbation: CMS vs placebo, Cox proportional hazard model; for rate ratio of CMS relative to placebo, NCFB pulmonary exacerbation annual rate: LS Mean
Protocol: As used herein the term “pulmonary exacerbation” in a patient refers to the presence concurrently of at least 3 of the following 8 symptoms/signs for at least 24 hours: • increased cough; • increased sputum volume and/or consistency; • increased sputum purulence; • new or increased haemoptysis; • increased wheezing; • increased dyspnoea; • increased fatigue/malaise; • episodes of fever (temperature≥38° C.) • and it is clinically determined that the subject requires and is prescribed systemic antibiotic therapy. A new pulmonary exacerbation is only considered to occur if there are at least 14 days between the end of the course of systemic antibiotics and the onset of new qualifying symptoms. (Note: A pulmonary exacerbation is reported as an Adverse Event or serious AE [SAE]).
A “severe” pulmonary exacerbation is herein defined a pulmonary exacerbation requiring intravenous antibiotics and/or hospitalisation.
A supportive analysis has been conducted using an alternative definition of NCFB pulmonary exacerbation. The re-classification of exacerbations has been conducted in a blinded fashion (before database lock). The alternative definition of pulmonary exacerbations used will be deterioration in three or more of the following key symptoms for at least 48 hours: • Cough • Sputum volume and/or consistency • Sputum purulence • Breathlessness and/or exercise tolerance (dyspnoea) • Fatigue and/or malaise • Haemoptysis • And: • a physician determines a change in bronchiectasis treatment is required when other potential causes of clinical deterioration have been discounted.
The number of NCFB pulmonary exacerbations during the treatment period has been analysed using a Poisson regression model allowing for over-dispersion including treatment, pooled sites and use of stable concomitant therapy with oral macrolides as fixed effects and log-time on trial as an offset.
The number and the percentage of subjects with NCFB pulmonary exacerbations, the number of pulmonary exacerbations and the total follow-up time in years have been summarised by treatment group. The adjusted yearly mean exacerbation rates in each treatment group and the adjusted rate ratio with their 95% CIs has been estimated by the model.
For the analysis, 2 pulmonary exacerbations have been considered as a single episode in cases where the second exacerbation starts less than 14 days after the end of the antibiotic therapy (oral or intravenous) for the first pulmonary exacerbation.
The time to the first NCFB pulmonary exacerbation and the time to the first severe NCFB pulmonary exacerbation has been calculated as the time in days from the date of the first dose of IMP to the date at which the first pulmonary exacerbation occurs (i.e. date at which the first pulmonary exacerbation occurs—date of the first dose+1). A […] has been used to compare the treatment groups. Subjects completing the trial without NCFB pulmonary exacerbations or who are discontinued prematurely without exacerbations, will be considered as censored at the time of their last follow-up. […]
The primary variable for this trial is the mean annual NCFB pulmonary exacerbation rate (frequency of pulmonary exacerbations) over 12 months.

[2] = system: bronchiectasis patients with P. aeruginosa; settings: cited from earlier work; for time to first exacerbation compared to placebo: 1 MU twice daily through the I-neb, up to 6 months (PPCTP/001, Haworth 2014)
[3] = system: Pseudomonas aeruginosa; experiment: PROMIS 1: P. aeruginosa density in sputum; type: in vivo; settings: for Mean change from baseline in P. aeruginosa density: mITT
Excerpt: Least square means in each treatment group, least square mean difference between treatments, their 95% CIs and associated p-values have been estimated.
Summary statistics of the P. aeruginosa density (log 10 CFU/g sputum) and change from baseline (Visit 2) will be provided by treatment group for each trial visit.
Results of the quantitative analysis for P. aeruginosa density will be presented as colony forming units (CFU) count per gram sputum.

[4] = system: subjects with NCFB chronically infected with P. aeruginosa; experiment: PROMIS 1: quality of life by Saint George's Respiratory Questionnaire (SGRQ); type: in vivo, human; settings: at the end of the CMS treatment
Excerpt: The SGRQ total score and domain scores (Symptoms, Activity and Impact scores) has been summarised at each visit by treatment group using descriptive statistics. Changes from baseline (Visit 2) have been also summarised for each post-baseline visit by treatment group. Scores have been computed according to the SGRQ manual.
SGRQ total score has been analysed using a linear mixed model for repeated measures including treatment, visit, treatment-by-visit interaction, use of stable concomitant therapy with oral macrolides and pooled sites as fixed effects and baseline value as covariate. An unstructured covariance matrix has been assumed and the Kenward-Roger adjustment has been used for the degrees of freedom. The least square means in each treatment group, the least square mean differences between treatments, their 95% CIs and associated p-values at each visit will be estimated by the model.
It is described e.g. in U.S. Pat. No. 6,367,470.

[5] = system: NCFB patients; settings: cited from earlier work
[6] = sensitivity analysis, alternative definition of exacerbation

In the case of colistimethate sodium [CMS], the “subjects with severe NCFB pulmonary exacerbations” value ([1]; 19/176 subjects) is reported as 10.8%, the “LS mean NCFB pulmonary exacerbation annual rate” value ([1]; PP Population) is reported as 0.491 and the “LS mean rate ratio of CMS relative to placebo” value ([1]; PP Population) is reported as 0.583. For the same compound, the “reduction in pulmonary exacerbation rate vs placebo” value ([1]; PP Population) was 42%, the “mean annual exacerbation rate (LS Mean)” value ([1]; adherent subjects (adherence>80%)) was 0.494 and the “median time to first severe NCFB pulmonary exacerbation, 25th and 75th percentile” value ([1]; human, in vivo) was “not reached”. For the same compound, the “reduction in the rate of severe pulmonary exacerbations compared to placebo” value ([1]; human, in vivo) was 59%, the “reduction in the risk of the first exacerbation event compared to placebo” value ([1]; mITT) was 41% and the “annual rate of exacerbations” value ([1]; mITT, CMS 1 MIU by I-neb twice a day, 12 months) was 0.58 per patient per year. For the same compound, the “hazard ratio, time to first NCFB pulmonary exacerbation” value ([1]; mITT) was 0.590, the “hazard ratio, time to first NCFB pulmonary exacerbation” value ([1]; mITT, listed as CMS I-neb) was 0.59 and the “median time to first NCFB pulmonary exacerbation” value ([1]; mITT, from first dose of IMP) was “not reached”. The “subjects who experienced a pulmonary exacerbation during the study” value ([1]; mITT, n=68) was 38.6%, the “reduction in the annual rate of pulmonary exacerbations relative to placebo” value ([1]; mITT, primary analysis) was 39% and the “rate ratio of CMS relative to placebo, NCFB pulmonary exacerbation annual rate” value ([1]; mITT, primary analysis) was 0.612. For the same compound, the “rate ratio of CMS relative to placebo, NCFB pulmonary exacerbation annual rate” value ([1]; mITT, primary analysis, listed as CMS I-neb) was 0.61, the “LS Mean rate ratio, pulmonary exacerbations” value ([1]; post-hoc analyses with low-recruiting countries combined) was 0.591 and the “LS mean NCFB pulmonary exacerbation annual rate” value ([1]; sensitivity analysis, alternative (ERS 2017) definition of exacerbation, mITT) was 0.538. For the same compound, the “LS mean rate ratio of CMS relative to placebo” value [1, 6] was 0.642, the “reduction in pulmonary exacerbation rate vs placebo” value [1, 6] was 36% and the “LS Mean severe NCFB pulmonary exacerbation annual rate” value ([1]; severe = requiring intravenous antibiotics and/or hospitalisation) was 0.116. For the same compound, the “LS Mean rate ratio of CMS relative to placebo, severe exacerbations” value ([1]; severe NCFB pulmonary exacerbations) was 0.409, the “time to first exacerbation compared to placebo” value [2] was “not statistically different from the placebo group” and the “frequency of adverse respiratory effects (cough, dyspnoea, bronchospasm, sore throat)” value ([2]; human, in vivo) was “at least 1 in 10 people”. For the same compound, the “admissions to emergency and days of hospitalization” value ([2]; observational study, 44 patients, 6 or 12 months, vs period preceding treatment (Lopez Gil Otero 2019)) was “reduced admissions to emergency and days of hospitalization”, the “LS mean difference in P. aeruginosa density, CMS vs placebo” value ([3]; after 1 month) was −1.620 and the “Mean change from baseline in P. aeruginosa density” value ([3]; Visit 3 (28 days)) was −1.59 log10(CFU/mL). The “Mean change from baseline in P. aeruginosa density” value ([3]; Visit 5 (6 months)) was −1.39 log10(CFU/mL), the “Mean change from baseline in P. aeruginosa density” value ([3]; Visit 6 (9 months)) was −1.56 log10(CFU/mL) and the “Mean change from baseline in P. aeruginosa density” value ([3]; Visit 7 (12 months/EOT)) was −0.86 log10(CFU/mL). The “course of P. aeruginosa density under treatment” value ([3]; over the study) was “fell rapidly and remained suppressed; also recorded: falls rapidly and remains suppressed” and the “treatment difference in SGRQ total score by LS means” value [4] was 4.552.

For colistin, the “time to first exacerbation compared to placebo” value [2] is given as “not to be associated with a statistically significant improvement”.

In the case of O=C(O)c1cn(C2CC2)c2cc(N3CCNCC3)c(F)cc2c1=O [ciprofloxacin], the “trial outcome, primary endpoints” value ([5]; ORBIT-3 and RESPIRE-2 trials) is given as “failed to achieve their primary endpoints” and the “trial outcome, time of first exacerbation and rate of exacerbations vs placebo” value ([5]; ORBIT-4 and RESPIRE-1 trials) is given as “showed clinical benefit”.
